Assay results taken from patent US11957766B2, “HNQO1-activatable fluorescent probe for imaging cancer cells in-vitro and in-vivo” (Texas Tech University System, priority 2019, dated 2024).

What was measured:
[1] = test system: IMR90, HUVEC cells; assay: Fluorescence microscopy of NIR-ASM in NQO1 non-expressing normal cells; assay type: cell-based, human; details: 10 μM, 60 min
Description: Detection of NQO1 in live cells. Inspired by the excellent biocompatibility, the inventors investigated its performance in both NQO1 expressing cancer cells (A549, H460) and NQO1 non-expressing normal cells (IMR90, HUVEC). All cells were incubated with NIR-ASM (10 μM) for 60 min, washed with PBS and were imaged under a confocal microscope after counterstaining the nuclei with Hoechst 33342 (FIG. 12A). […] The higher expression of NQO1 protein in A549 and H460 cells and its absence in normal cells, IMR90 and HUVEC as found with western blot analysis correlated with the probe reactivity in cells (FIG. 12B). […] Cell sorting using flow cytometry is a well-established technology in clinical diagnostics and biomedical research. To assess the applicability of the NIR-ASM to rapidly detect and quantify in both cancer and normal cells based on NQO1 expression, the probe was incubated with cell suspensions for 60 min, and about 1×10^4 cells were analyzed on a flow cytometer.
Fluorescence imaging. Both cancer and normal cells were seeded into 6-well plates and cultured overnight in respective media at 37° C. Cells were treated with 10 μM NIR-ASM and incubated at 37° C. for 60 min. They were then treated with nuclear stain Hoechst 33342 for 5 min. Finally, the medium was replaced with PBS and the live cells were imaged using a multiphoton confocal fluorescence microscope (λex/em=488/644 nm). […]

[2] = test system: A549 tumor; assay: In vivo real-time imaging of NQO1 in A549 xenografts with NIR-ASM; parameters: species or system nude mice
Description: In vivo real-time imaging of NQO1 in xenografts using NIR-ASM. In vivo real-time imaging offers a powerful tool for accurately diagnosing disease and suspicious lesions with valuable spatiotemporal precision. […] Tumor xenografts were established by implanting exponentially growing lung cancer cells (A549) subcutaneously into nude mice. When tumor growth reached the log phase, NIR-ASM (5 mg/kg in PEG:H2O:EtOH (6:3:1)) was given intravenously and subjected to whole-body fluorescence imaging using an In Vivo Imager (IVIS). […] No signal was apparent in other organs of the animal. To confirm the tumor-selective targeting ability of NIR-ASM, the host organs and tumor from the mice administered with NIR-ASM were harvested and their fluorescence was analyzed ex vivo using the same IVIS. […] Furthermore, the lysates from the tumor and various organs were electrophoresed and western blotted using the NQO1 antibody. NQO1 protein at detectable levels was seen only in the tumor lysate and not in other tissues, thus, reinforcing the specificity of in-vivo imaging (FIG. 14C).
In vivo bioimaging. […] All animals were monitored for activity, physical condition, body weight, and tumor growth. […] Fluorescence represented in log values of radiance is photons per second per square centimeter per steradian.

[3] = target: NQO1 (Homo sapiens, UniProt P15559); assay: HPLC analysis of NQO1 catalyzed conversion of NIR-ASM; assay type: biochemical; parameters: purchased Sigma-Aldrich D1515; details: after 30 min of incubation
Text: Design, preparation, and characterization of the NIR-ASM fluorescent probe. Imaging agents emitting near-infrared fluorescence enable deeper penetration with low phototoxicity and high signal-to-background ratios due to minimal tissue auto-fluorescence, which is a prime requirement for in vivo imaging studies.^40,41 Accordingly, the inventors designed an NQO1 activatable near-infrared fluorescent probe (NIR-ASM) by attaching a trimethyl-lock QPA with (E)-2-(3-(4-aminostyryl)-5,5-dimethylcyclohex-2-en-1-ylidene)malononitrile (ASM) for molecular imaging of cancer cells in vivo (FIG. 9A). The fluorophore ASM was used in this study because of its strong NIR fluorescence signal with substantial Stokes shift (˜190 nm), to eliminate background interferences by avoiding reabsorption of emitted photons. […] NQO1 is a ubiquitous cytosolic two-electron reductase that catalyzes the reduction of quinone substrates in the presence of NADH. Upon interaction with NQO1 in the presence of NADH, QPA present in non-fluorescent NIR-ASM undergoes two-electron reduction to form an o-hydroxydihydrocinnamic acid derivative that undergoes rapid lactonization under physiological conditions to yield dihydrocoumarin, 6-hydroxy-4,4,5,7,8-pentamethylchroman-2-one (HPC) along with highly fluorescent ASM. […]

[4] = test system: hNQO1 in T98G cells; assay: siRNA knockdown of NQO1 and NQ-DCP activation; assay type: cell-based, human; details: compared with a siRNA control, 10 μM probe
Description: Evaluation of Specificity in Cancer Cells. To show the substrate selectivity of NQ-DCP for hNQO1, T98G cells were pretreated with 100 nM of NQO1 inhibitor ES936 for 6 h and incubated 10 μM of NQ-DCP.
Knockdown of NQO1 by Small Interfering RNA (siRNA). NQO1 siRNA (a pool of 3 target-specific 19-25 nt siRNAs, Santa Cruz Biotechnology, Inc., (Dallas, TX, USA) and scrambled siRNAs were introduced into cells using the X-tremeGENE siRNA transfection reagent (Roche, Basel, Switzerland) according to the manufacturer's instructions with 80 pmol of NQO1 siRNA and 10 μl of transfection reagent per well of a six-well plate for T98G cells.

NQO1, sequence (P15559 whole entry): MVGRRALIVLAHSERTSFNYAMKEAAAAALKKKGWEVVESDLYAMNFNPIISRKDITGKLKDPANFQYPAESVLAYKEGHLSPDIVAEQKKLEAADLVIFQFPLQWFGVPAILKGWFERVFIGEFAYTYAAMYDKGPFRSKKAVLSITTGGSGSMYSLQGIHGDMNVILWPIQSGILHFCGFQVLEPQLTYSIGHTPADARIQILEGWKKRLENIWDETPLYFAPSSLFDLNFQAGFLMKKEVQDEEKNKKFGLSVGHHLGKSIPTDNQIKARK

conversion into ASM by NQO1 (HPLC) [3]	Compound	fluorescence signal in normal cells [1]	time at which tumor fluorescence signal reached the plateau ([2]; 5 mg/kg intravenously) [min]	ex vivo fluorescence in tumor and organs ([2]; organs harvested after NIR-ASM)	decrease in fluorescence after siRNA silencing of the hNQO1 gene [4]
nearly completely converted into ASM	CC1=C(C)C(=O)C(C(C)(C)CC(=O)Nc2ccc(/C=C/C3=CC(=C(C#N)C#N)CC(C)(C)C3)cc2)=C(C)C1=O [NIR-ASM, (E)-N-(4-(2-(3-(dicyanomethylene)-5,5-dimethylcyclohex-1-en-1-yl)vinyl)phenyl)-3-methyl-3-(2,4,5-trimethyl-3,6-dioxocyclohexa-1,4-dien-1-yl)butanamide]	did not show any fluorescence	30	observed only in the tumor and not in any other major organs	–
–	CC1=C(C)C(=O)C(C(C)(C)CC(=O)Oc2ccc(/C=C/C3=CC(=C(C#N)C#N)CC(C)(C)C3)cc2)=C(C)C1=O [NQ-DCP]	–	–	–	90-95%
